Legend:
Type in all cases: in vivo, C57BL/6N male mice
intestinal flora = experiment: 16S rRNA sequencing of intestinal flora in colorectal cancer mice; conditions: colorectal cancer mice (FIG. 16D)
Description: The mouse feces was collected using a 1.5 mL EP tube, immediately frozen in liquid nitrogen, and stored at −80° C. before sample delivery. 6 samples of mouse colon contents were collected from each group and placed in dry ice for 16S rRNA sequencing by Qingdao Biomarker Technologies Co., LTD.

[1] = system: colitis-associated colorectal cancer model in mice; experiment: AOM/DSS-induced colitis-associated colorectal cancer mouse model (body weight, colon, tumors, serum IL-6)
Description: In this experiment, a mouse colitis-associated colorectal cancer model was established using AOM/DSS, and a specific process is shown in FIG. 2. C57BL/6N male mice were placed in an SPF barrier environment for adaptive feeding for one week, while mice with abnormal weight were eliminated. The remaining mice were randomly divided into […], namely: blank group, 3% DSS+normal saline group (a model group), 3% DSS+300 mg/kg mesalazine (a positive drug group), 3% DSS+600 mg/kg hulless barley grass-derived polyphenol crude extract (Example 1), 3% DSS+400 mg/kg hulless barley grass-derived polysaccharide crude extract (Comparative Example 1), 3% DSS+200 mg/kg hulless barley grass-derived lipid crude extract (Comparative Example 2), and 3% DSS+600 mg/kg hulless barley seed-derived polyphenol crude extract (Comparative Example 3). There were ten mice in each group. In the second week, the mice in the model group, positive group, grass polyphenol group, polysaccharide group, lipid group, and seed polyphenol group were intraperitoneally injected with 10 mg/kg AOM. From the third week, the mice drank 3% DSS aqueous solution for one week, and then the DSS aqueous solution was replaced with sterile water for the mice to drink. The experiment ended after six weeks. During the entire experiment, each group of mice was gavaged with medication according to the grouping. The conditions of mice were observed and their weights were recorded each time they were gavaged. At the end of the experiment, all mice were anesthetized, and the colon (from the anus to the cecum), liver, kidney, and spleen tissues of the mice were collected and weighed after dissection. The intestinal contents were gently rinsed with PBS and the length of the mouse colon tissue was measured. The colon was longitudinally cut open with ophthalmic scissors, and the number and size of tumors in the mouse colon were measured with a vernier caliper and recorded. A part of the whole colon of the mouse was taken for the subsequent preparation of colon Swiss rolls, fixated in 4% paraformaldehyde fixative for histopathological analysis, and the remaining tissues were quick-frozen in liquid nitrogen and then transferred to a −80° C. refrigerator for further measurement of qPCR and other experiments.

COX-2, EGFR, INOS genes = experiment: qPCR of COX-2, EGFR and INOS genes in tumor tissue of colorectal cancer mice
Description: (§1) The whole colon of a mouse was divided into two major parts, namely the tumor segment and the white-side segment. 20 mg of tumor tissue and white-side tissue were taken from the same mouse for total RNA extraction and reverse transcription reaction. The specific operation was the same as above.
(§2) The experimental data were plotted using GraphPad Prism9.0, and statistical analysis was conducted using one-way ANOVA, where “ns” indicated no significant difference, “*” indicated p<0.05, “**” indicated p<0.01, “***” indicated p<0.001, and “****” indicated p<0.0001. The relative expression of mRNA in qPCR was calculated using the […] method.

[2] = system: acute ulcerative colitis model in mice; experiment: DSS-induced acute ulcerative colitis mouse model (body weight, DAI, colon length, survival); conditions: 3% DSS colitis mice, gavage; model group 2.93, blank 0 (FIG. 3C)
Description: In this experiment, DSS was used to construct an acute ulcerative colitis model in mice, and a specific process is shown in FIG. 1. C57BL/6N male mice were placed in an SPF barrier environment for adaptive feeding for one week, while mice with abnormal weight were eliminated. […] From the first day, mice in all groups except the blank group were given drugs by gavage throughout the whole process; from the fourth day, mice in all groups (except the blank group) drank 3% DSS aqueous solution freely for one week; from the tenth day, 3% DSS was replaced with sterile drinking water for experimental mice, and the mice were allowed to recover naturally for one week; on the eighteenth day, the experiment ended and samples were collected from the mice. After the mice were anesthetized, blood was collected from their orbits. After blood collection, the liver, kidney, and spleen tissues of the mice were collected and weighed. The colon tissue from the cecum to the anus of the mice was collected and its length was measured. A 1 cm to 2 cm colon tissue from the anus was fixated in 4% paraformaldehyde solution for histopathological staining. […] During the mouse modeling period, the mouse status was observed daily and the mouse weight was recorded.
The fresh mouse feces were collected and the fecal occult blood was determined according to the instructions of the fecal occult blood assay kit. […]

TNF-α, IL-6, IL-1β mRNA = experiment: qPCR of inflammatory factors in tumor tissue of colorectal cancer mice
Description: as §1, §2

[3] = system: colon tissue of colorectal cancer mice; experiment: Colon Swiss roll H&E histopathology of colorectal cancer mice; conditions: AOM/DSS colorectal cancer mice, compared with the model group (FIG. 13)
Description: The colon was taken out from the fixative in a fume hood, one end of the colon was gently clamped with ophthalmic forceps, and the entire colon was gently rolled around the forceps in one direction. Be careful not to do it too tight or too loose, otherwise the intestinal villi might fall over or become loose. The Swiss roll was prepared by piercing the edge of the rolled intestine with a fine needle to complete the fixation, and the ophthalmic forceps were removed in the center of the colon. The Swiss roll was placed in an embedding frame and labeled, followed by dehydration and wax immersion, paraffin embedding, paraffin sectioning, dewaxing to water, hematoxylin staining, eosin staining, dehydration and sealing, microscopic examination, and graphic analysis.

[4] = AOM/DSS colorectal cancer mice, compared with the model group (FIG. 12C)

Nc1ccc(O)c(C(=O)O)c1 [mesalazine]
richness and uniformity of the intestinal flora (rank abundance curve) (intestinal flora): closest to those of the blank group | colon weight per unit length (increase in tumor weight caused by modeling) ([1]; AOM/DSS colorectal cancer mice (FIG. 11C)): effectively reduced the increase in tumor weight caused by modeling | proportion of tumors above 3 mm [1, 4]: decreased | proportion of tumors less than 2 mm [1, 4]: increased significantly | proportion of tumors of 2 mm to 3 mm [1, 4]: decreased | body weight when the experiment was over ([1]; AOM/DSS colorectal cancer mice, last day (FIG. 10B)): significant decrease | expression level of COX-2 gene (COX-2, EGFR, INOS genes; compared with the model group (FIG. 15A)): significantly downregulated | expression level of EGFR gene (COX-2, EGFR, INOS genes; compared with the model group (FIG. 15B)): significantly downregulated | expression level of INOS gene (COX-2, EGFR, INOS genes; compared with the model group (FIG. 15C)): significantly downregulated | disease activity index (DAI) [2]: 2.33 | relative expression level of TNF-α mRNA (TNF-α, IL-6, IL-1β mRNA; compared with the model group (FIG. 14A)): significantly reduced | relative expression level of IL-6 mRNA (TNF-α, IL-6, IL-1β mRNA; compared with the model group (FIG. 14B)): significantly reduced | relative expression level of IL-1β mRNA (TNF-α, IL-6, IL-1β mRNA; compared with the model group (FIG. 14C)): significantly reduced | colon thickness and tumors in pathological sections (H&E) [3]: showed a similar trend

Reference: patent US20260014225A1, “USE OF HULLESS BARLEY GRASS EXTRACT IN CONTROLLING COLORECTAL CANCER AND ULCERATIVE COLITIS” (Shanghai Jiao Tong University, priority 2024, published 2026)
